Details: Liquid; for speed of sound: Pulse-echo method; for mass density: Vibrating tube method

CCCCCCCCCCCCCCCCCCc1ccccc1 [octadecylbenzene]
Details	mass density, 353.15 K [kg/m3]	mass density, 363.15 K [kg/m3]	mass density, 373.15 K [kg/m3]	speed of sound, 343.15 K [m/s]	speed of sound, 353.15 K [m/s]	speed of sound, 363.15 K [m/s]	speed of sound, 373.15 K [m/s]
100 kPa	814.1	807.7	800.89	–	1260.7	1229.5	1198.7
5000 kPa	817.72	811.19	804.86	–	–	–	–
10000 kPa	821.14	814.87	808.59	–	1313.4	1284.8	1255.2
15000 kPa	824.47	818.14	812.16	–	–	–	–
20000 kPa	–	–	–	–	1364.1	1334.9	1308.3
25000 kPa	830.64	824.7	818.84	–	–	–	–
30000 kPa	833.58	827.83	821.97	–	1410	1382.7	1356.6
35000 kPa	836.52	830.62	825.09	–	–	–	–
40000 kPa	839.12	833.38	828	–	1454	1427.1	1401.7
45000 kPa	841.72	836.17	830.8	–	–	–	–
50000 kPa	844.35	838.78	833.6	–	1494.4	1469.1	1444.5
55000 kPa	846.91	841.42	836.29	–	–	–	–
60000 kPa	849.39	843.92	838.88	–	1532.6	1508.3	1484.7
70000 kPa	–	–	–	1594.2	1569.2	1545.7	1522
80000 kPa	–	–	–	1628.6	1604.3	1581.7	1558.6
90000 kPa	–	–	–	1661.5	1638.2	1615.7	1592.9
100000 kPa	–	–	–	1693.1	1670.3	1648.3	1626.3
110000 kPa	–	–	–	1723.6	1701.4	1679.8	1657.9
120000 kPa	–	–	–	1753.5	1731.3	1710	1688.5
130000 kPa	–	–	–	1781.9	1759.9	1739.2	1718.7
140000 kPa	–	–	–	1809.4	1788.8	1767.5	1746.6
150000 kPa	–	–	–	1836.3	1815.1	1795.5	1774.6

— the NIST ThermoML archive (doi:10.1021/je049973v)
